Test system: gastric acid secretion in dogs having chronic gastric fistula
Test: Gastric acid secretion inhibiting effect in dogs having chronic gastric fistula (histamine-stimulated)
Format: in vivo
Conditions: dog, histamine i.v.; for Gastric Acid Secretion Inhibiting Action (%): first day, 1 h 40 min to 2 h after administration; for Gastric Acid Secretion Inhibiting Persistence (%): second day (24 hours after administration)
Procedure: Using large dogs (body weight approximately 14 to 19 kg) having a chronic gastric fistula, the gastric acid secretion inhibiting action and gastric acid secretion inhibiting action persistence of test compounds of the Examples was investigated. The experiment was carried out over 2 days. On the first day, gastric juice was collected every 20 minutes under conditions of intravenously administering histamine (50 or 75 μg/kg/h) continuously for 3 hours. 1 Hour after commencing the histamine administration, the test compound suspended or dissolved in a 0.5% methylcellulose solution was administered at a volume of 0.1 ml/kg via an indwelling catheter in the duodenum. The gastric acid secretion inhibiting action of the test compound was then investigated over the subsequent 2 hours. On the second day (24 hours after the administration of the test compound), gastric juice was collected every 20 minutes under conditions of intravenously administering histamine continuously for 2 hours, and the gastric acid secretion inhibiting action persistence was investigated. After measuring the amount of gastric juice, a 0.5 ml sample of the gastric juice was taken, and neutralization titration was carried out to a pH of 7.0 with a 0.04 mol/l sodium hydroxide solution so as to measure the acid concentration. The acid concentration was multiplied by the amount of gastric juice so as to determine the gastric acid output. The gastric acid secretion inhibiting action was evaluated as the gastric acid secretion suppression rate (%) on the first day. The gastric acid secretion inhibiting action (%) was calculated using the following formula. In the case of 2 or more dogs, the mean over all of the dogs was calculated and is shown.
Gastric acid secretion inhibiting action (%)=(A−B)/A×100
[A] Gastric acid output over 20 minutes from 40 minutes to 1 hour after commencement of histamine administration [B] Gastric acid output over 20 minutes from 1 hour 40 minutes to 2 hours after administration of test compound
The gastric acid secretion inhibiting action persistence was evaluated as the gastric acid secretion suppression rate (%) on the second day. The gastric acid secretion inhibiting action persistence (%) was calculated using the following formula.
Gastric acid secretion inhibiting action persistence (%)=(C−D)/C×100
[C] Total gastric acid output from commencement of histamine administration on first day to 1 hour thereafter [D] Total gastric acid output from commencement of histamine administration on second day to 1 hour thereafter

[1] = 0.4 mg/kg i.d., mean of 10 dogs

Cc1cnc(C[S+]([O-])c2nc3ccccc3[n-]2)c(C)c1OCC1COC(C)(C)OC1.[Na+] (stereo not drawn) [Compound X, Sodium Salt of Optical Isomer Having Short Retention Time of 2-[[[4-(2,2-dimethyl-1,3-dioxan-5-yl)methoxy-3,5-dimethylpyridin-2-yl]methyl]sulfinyl]-1H-benzimidazole]
Gastric Acid Secretion Inhibiting Action (%) (0.1 mg/kg i.d., mean of 4 dogs): 8%
Gastric Acid Secretion Inhibiting Persistence (%) (0.1 mg/kg i.d., mean of 4 dogs): 6%
Gastric Acid Secretion Inhibiting Action (%) (0.2 mg/kg i.d., mean of 4 dogs): 65%
Gastric Acid Secretion Inhibiting Persistence (%) (0.2 mg/kg i.d., mean of 4 dogs): 46%
Gastric Acid Secretion Inhibiting Action (%) [1]: 97%
Gastric Acid Secretion Inhibiting Persistence (%) [1]: 77%
Gastric Acid Secretion Inhibiting Action (%) (0.8 mg/kg i.d., mean of 8 dogs): 100%
Gastric Acid Secretion Inhibiting Persistence (%) (0.8 mg/kg i.d., mean of 8 dogs): 89%

Reference: patent publication US20100022778A1, “PROCESS FOR PRODUCTION OF SULFINYLBENZIMIDAZOLE COMPOUNDS OR SALTS THEREOF” (priority 2006, published 2010)
